According to ChEMBL document CHEMBL2029333, “Synthesis of norlignans and in vitro inhibitory activity of antigen-induced degranulation” (Bioorg Med Chem Lett, 2012):

What follows are molecules tested on RBL-2H3 (assay: Inhibition of DNP-BSA-induced degranulation in rat RBL2H3 cells assessed as reduction in beta-hexosaminidase release after 20 mins by spectrophotometry). Details: RBL-2H3, 20 min.
Format: functional, cell-based
C=CC(CC(=O)c1ccc(OC)cc1)c1cccc(OC)c1 (stereo not given) was tested, and the IC50 was 85.4 µM.
C=CC(CC(O)c1ccc(O)cc1)c1cccc(O)c1 (stereo not given) gave an IC50 of 34.1 µM.
With C=CC(/C=C/c1ccc(OC)cc1)c1ccc(OC)cc1 (stereo not given) the IC50 was over 200 µM.
With C=CC(CC(O)c1ccc(OC)cc1)c1ccc(OC)cc1 (stereo not given) the IC50 was over 200 µM.
Work on C=CC(/C=C/c1ccc(O)cc1)c1ccc(O)cc1 (stereo not given) yielded an IC50 of 55.2 µM.
In the case of C=CC(CC(O)c1ccc(OC)cc1)c1cccc(OC)c1 (stereo not given), the IC50 is reported as over 200 µM.
With C=CC(CC(=O)c1ccc(O)cc1)c1ccc(O)cc1 (stereo not given) the IC50 was 34.6 µM.
With C=CC(CC(=O)c1ccc(OC)cc1)c1ccc(OC)cc1 (stereo not given) the IC50 was 88.5 µM.
C=CC(CC(=O)c1ccc(O)cc1)c1cccc(O)c1 (stereo not given) showed an IC50 of 18.3 µM.
In the case of C=CC(CC(=O)c1ccc(O)cc1)c1cccc(OC)c1 (stereo not given), the IC50 is reported as 17.9 µM.
With C=CC(CC(=O)c1ccc(OC)cc1)c1cccc(O)c1 (stereo not given) the IC50 was 90.5 µM.
With C=CC(/C=C/c1ccc(O)cc1)c1cccc(O)c1 (stereo not given) the IC50 was 55.6 µM.
In the case of C=CC(/C=C/c1ccc(OC)cc1)c1cccc(OC)c1 (stereo not given), the IC50 is reported as over 200 µM.
C=CC(CC(O)c1ccc(O)cc1)c1ccc(O)cc1 (stereo not given) gave an IC50 of over 200 µM.
With CN1CCC(=C2c3ccccc3CC(=O)c3sccc32)CC1 [KETOTIFEN] the IC50 was 35.2 µM.
